Laboratory results published in PMC9964680, “Novel TDP1 Inhibitors: Disubstituted Thiazolidine-2,4-Diones Containing Monoterpene Moieties” (International Journal of Molecular Sciences, 2023).
Read-outs that look alike come from different tables or passages of the source.

How the values were obtained:
TDP1 = settings: cited from earlier work
Human recombinant TDP1 = target: T1, Human recombinant TDP1 (Homo sapiens, UniProt Q9NUW8); assay: Real-time oligonucleotide biosensor assay of TDP1 activity; assay type: biochemical; settings: 1.5 nM TDP1, 50 nM biosensor, 26 °C, at least three experiments; for IC50: read-out: TDP1 inhibitory activity IC50
T1 construct: made in house
Description: The inhibiting activity of the compounds against TDP1 was investigated using a real-time oligonucleotide biosensor assay.
The biosensor (5′-[FAM] AAC GTC AGGGTC TTC C [BHQ]-3′) was synthesized in the Laboratory of Nucleic Acid Chemistry at the Institute of Chemical Biology and Fundamental Medicine (Novosibirsk, Russia) and was used for TDP1 enzyme activity real-time fluorescence detection. The reaction mixture (200 µL) contained a TDP1 reaction buffer (50 mM Tris-HCl, pH 8.0, 50 mM NaCl, and 7 mM β-mercaptoethanol), 50 nM oligonucleotide, varied concentrations of the tested compounds, and purified TDP1 in a final concentration of 1.5 nM. The recombinant TDP1 was purified to homogeneity by chromatography on Ni-chelating resin and phosphocellulose P11, as described, using plasmid pET 16B-TDP1, kindly provided by Dr. K.W. Caldecott (University of Sussex, United Kingdom).
The reaction mixtures were incubated at a constant temperature of 26 °C in a POLARstar OPTIMA fluorimeter (BMG LABTECH, GmbH, Ortenberg, Germany). Fluorescence intensity was measured (Ex485/Em520 nm) every 1 min for 10 min. The average values of the half maximal inhibitory concentration (IC50) were determined using a six-point concentration response curve and calculated using MARS Data Analysis 2.0 (BMG LABTECH). The 50% inhibitory concentration (IC50) was defined as the concentration of the compound that inhibited 50% of the enzyme activity, when compared to the untreated controls. At least three independent experiments were carried out to obtain the IC50 values.

T1 sequence (Q9NUW8 whole entry): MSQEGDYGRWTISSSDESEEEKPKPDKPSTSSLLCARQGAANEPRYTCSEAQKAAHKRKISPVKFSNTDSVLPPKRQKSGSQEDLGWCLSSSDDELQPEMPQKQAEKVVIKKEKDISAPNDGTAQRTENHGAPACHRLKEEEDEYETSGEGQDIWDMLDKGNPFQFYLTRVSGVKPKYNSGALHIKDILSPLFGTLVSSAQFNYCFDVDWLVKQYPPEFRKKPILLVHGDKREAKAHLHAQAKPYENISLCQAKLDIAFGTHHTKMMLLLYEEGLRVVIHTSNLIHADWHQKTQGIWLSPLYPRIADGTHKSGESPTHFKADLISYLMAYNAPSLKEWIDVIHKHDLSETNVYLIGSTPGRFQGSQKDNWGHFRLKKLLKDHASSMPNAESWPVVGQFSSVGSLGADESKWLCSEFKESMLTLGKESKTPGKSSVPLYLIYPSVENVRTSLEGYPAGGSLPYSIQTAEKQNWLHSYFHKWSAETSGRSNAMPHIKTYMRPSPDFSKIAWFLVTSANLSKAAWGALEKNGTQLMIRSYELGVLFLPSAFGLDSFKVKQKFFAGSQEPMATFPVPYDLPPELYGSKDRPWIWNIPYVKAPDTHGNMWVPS

| SMILES | IC50 (Human recombinant TDP1) [nM] | further results |
| --- | --- | --- |
| CCCS(=O)(=O)Oc1c(OC)cc(Br)c2c1CN1CCc3cc4c(cc3C1C2)OCO4 (stereo not drawn) [Compound 2] | – | IC50 (TDP1; Figure 1, berberines): 2900 nM |
| COc1ccc(-c2cc(=O)oc3cc(OCCC4=CCC5CC4C5(C)C)ccc23)cc1 (stereo not drawn) [Compound 3] | – | IC50 (TDP1; Figure 1, coumarins): 910 nM |
| CO[C@@H]1CC[C@]2(C)C3C[C@H](OC)[C@@]4(C)C(CC[C@@H]4[C@H](C)CCC(=O)Nc4ccc(Br)cc4)[C@@H]3CC[C@@H]2C1 (stereo partly drawn) [Compound 4] | – | IC50 (TDP1; Figure 1, steroids): 270 nM |
| COc1cccc2c1-c1c(c3ccc([N+](=O)[O-])cc3c(=O)n1CCCN)C2=O [Compound 5] | – | IC50 (TDP1; Figure 1, isoquinolines): 5500 nM |
| O=C1NC(=S)/C(=C/c2ccc(O)c(O)c2O)S1 [Compound 6] | – | IC50 (TDP1; Figure 1, thiazolidines): 870 nM |
| CC(C)c1ccc2c(c1)CC[C@H]1[C@](C)(CNC(=O)CC34CC5CC(CC(C5)C3)C4)CCC[C@]21C [Compound 7] | – | IC50 (TDP1; Figure 1, resin acid derivatives): 190 nM |
| CC(C)=CCC/C(C)=C/CSc1n[nH]c(C23CC4CC(CC(C4)C2)C3)n1 [Compound 8] | – | IC50 (TDP1; Figure 1, terpenoadamantanes): 5200 nM |
| O=C1NC(=O)/C(=C/c2ccco2)S1 [Compound 18a, (Z)-5-(furan-2-ylmethylene)thiazolidine-2,4-dione] | > 100000 | – |
| O=C1NC(=O)/C(=C/c2ccc(Br)s2)S1 [Compound 18b, (Z)-5-((5-bromothiophen-2-yl)methylene)thiazolidine-2,4-dione] | 1100 ± 200 | – |
| O=C1NC(=O)/C(=C/c2cccs2)S1 [Compound 18c, (Z)-5-(thiophen-2-ylmethylene)thiazolidine-2,4-dione] | > 100000 | – |
| O=C1NC(=O)/C(=C/c2cc(Br)cs2)S1 [Compound 18d, (Z)-5-((4-bromothiophen-2-yl)methylene)thiazolidine-2,4-dione] | > 100000 | – |
| Cc1ccc(/C=C2\SC(=O)NC2=O)s1 [Compound 18e, (Z)-5-((5-methylthiophen-2-yl)methylene)thiazolidine-2,4-dione] | > 100000 | – |
| O=C1NC(=O)/C(=C/c2ccc(Br)cc2)S1 [Compound 18f, (Z)-5-(4-bromobenzylidene)thiazolidine-2,4-dione] | > 100000 | – |
| CC1=CC[C@@H](C/C=C2\SC(=O)NC2=O)C1(C)C [Compound 18g, (S,Z)-5-(2-(2,2,3-Trimethylcyclopent-3-enyl)ethylene)thiazolidine-2,4-dione] | > 100000 | – |
| O=C1S/C(=C\c2ccco2)C(=O)N1Cc1ccccc1 [Compound 19a, (Z)-3-Benzyl-5-(furan-2-ylmethylene)thiazolidine-2,4-dione] | > 100000 | – |
| O=C1S/C(=C\c2ccc(Br)s2)C(=O)N1Cc1ccccc1 [Compound 19b, (Z)-3-Benzyl-5-((5-bromothiophen-2-yl)methylene)thiazolidine-2,4-dione] | 1900 ± 300 | – |
| O=C1S/C(=C\c2cccs2)C(=O)N1Cc1ccccc1 [Compound 19c, (Z)-3-Benzyl-5-(thiophen-2-ylmethylene)thiazolidine-2,4-dione] | > 100000 | – |

| SMILES | IC50 (Human recombinant TDP1) [nM] | further results |
| --- | --- | --- |
| O=C1S/C(=C\c2cc(Br)cs2)C(=O)N1Cc1ccccc1 [Compound 19d, (Z)-3-Benzyl-5-((4-bromothiophen-2-yl)methylene)thiazolidine-2,4-dione] | > 100000 | – |
| Cc1ccc(/C=C2\SC(=O)N(Cc3ccccc3)C2=O)s1 [Compound 19e, (Z)-3-Benzyl-5-((5-methylthiophen-2-yl)methylene)thiazolidine-2,4-dione] | > 100000 | – |
| O=C1S/C(=C\c2ccc(Br)cc2)C(=O)N1Cc1ccccc1 [Compound 19f, (Z)3-benzyl-5-(4-bromobenzylidene)thiazolidine-2,4-dione] | 1600 ± 300 | – |
| CC1=CC[C@@H](C/C=C2\SC(=O)N(Cc3ccccc3)C2=O)C1(C)C [Compound 19g, (S,Z)-3-Benzyl-5-(2-(2,2,3-trimethylcyclopent-3-enyl)ethylidene)thiazolidine-2,4-dione] | 2400 ± 1100 | – |
| CC(C)=CCC/C(C)=C/CN1C(=O)S/C(=C\c2ccco2)C1=O [Compound 20a, (Z)-3-((E)-3,7-dimethylocta-2,6-dienyl)-5-(furan-2-ylmethylene)thiazolidine-2,4-dione] | 3400 ± 100 | – |
| CC(C)=CCC/C(C)=C/CN1C(=O)S/C(=C\c2ccc(Br)s2)C1=O [Compound 20b, (Z)-5-((5-bromothiophen-2-yl)methylene)-3-((E)-3,7-dimethylocta-2,6-dienyl)thiazolidine-2,4-dione] | > 100000 | TDP1 inhibitory activity IC50 (Human recombinant TDP1): did not show affinity for the enzyme |
| CC(C)=CCC/C(C)=C/CN1C(=O)S/C(=C\c2cccs2)C1=O [Compound 20c, (Z)-3-((E)-3,7-dimethylocta-2,6-dienyl)-5-(thiophen-2-ylmethylene)thiazolidine-2,4-dione] | > 100000 | – |
| CC(C)=CCC/C(C)=C/CN1C(=O)S/C(=C\c2cc(Br)cs2)C1=O [Compound 20d, (Z)-5-((4-bromothiophen-2-yl)methylene)-3-((E)-3,7-dimethylocta-2,6-dienyl)thiazolidine-2,4-dione] | 650 ± 70 | TDP1 inhibitory activity IC50 (Human recombinant TDP1): submicromolar |
| CC(C)=CCC/C(C)=C/CN1C(=O)S/C(=C\c2ccc(C)s2)C1=O [Compound 20e, (Z)-3-((E)-3,7-dimethylocta-2,6-dienyl)-5-((5-methylthiophen-2-yl)methylene)-thiazolidine-2,4-dione] | 2900 ± 100 | – |
| CC(C)=CCC/C(C)=C/CN1C(=O)S/C(=C\c2ccc(Br)cc2)C1=O [Compound 20f, (Z)-5-(4-bromobenzylidene)-3-((E)-3,7-dimethylocta-2,6-dienyl)thiazolidine-2,4-dione] | > 100000 | – |
| CC(C)=CCC/C(C)=C/CN1C(=O)S/C(=C\C[C@@H]2CC=C(C)C2(C)C)C1=O [Compound 20g] | 4100 ± 100 | – |
| CC1(C)[C@H]2CC=C(CCN3C(=O)S/C(=C\c4cccs4)C3=O)[C@@H]1C2 [Compound 21c, (Z)-3-(2-((1R,5S)-6,6-dimethylbicyclo[3.1.1]hept-2-en-2-yl)ethyl)-5-(thiophen-2-ylmethylene)thiazolidine-2,4-dione] | > 100000 | – |
| CC1(C)[C@H]2CC=C(CCN3C(=O)S/C(=C\c4cc(Br)cs4)C3=O)[C@@H]1C2 [Compound 21d, (Z)-5-((4-bromothiophen-2-yl)methylene)-3-(2-((1R,5S)-6,6-dimethylbicyclo[3.1.1]hept-2-en-2-yl)ethyl)thiazolidine-2,4-dione] | 550 ± 70 | TDP1 inhibitory activity IC50 (Human recombinant TDP1): submicromolar |
| Cc1ccc(/C=C2\SC(=O)N(CCC3=CC[C@H]4C[C@@H]3C4(C)C)C2=O)s1 [Compound 21e, (Z)-3-(2-((1R,5S)-6,6-dimethylbicyclo[3.1.1]hept-2-en-2-yl)ethyl)-5-((5-methylthiophen-2-yl)methylene)thiazolidine-2,4-dione] | 2300 ± 100 | – |
| CC1(C)[C@H]2CC=C(CCN3C(=O)S/C(=C\c4ccc(Br)cc4)C3=O)[C@@H]1C2 [Compound 21f, (Z)-5-(4-bromobenzylidene)-3-(2-((1R,5S)-6,6-dimethylbicyclo[3.1.1]hept-2-en-2-yl)ethyl)thiazolidine-2,4-dione] | > 100000 | – |
| CC1=CCC(CC=C2SC(=O)N(CCC3=CCC4CC3C4(C)C)C2=O)C1(C)C [Compound 21g, (Z)-3-(2-(1R,5S)-6,6-dimethylbicyclo[3.1.1]hept-2-en-2-yl)ethyl)-5-(2-((S)-2,2,3-trimethylcyclopent-3-enyl)ethylidene)thiazolidine-2,4-dione] | 2400 ± 100 | – |
